# Experimental data published in patent US8754216B2, “NK1 antagonists” (OPKO Health, Inc., priority 2004, dated 2014).
# Molecular target: NK1 receptor (Homo sapiens, UniProt P25103)
# Assay: NK1 receptor binding: inhibition of Substance P binding, Ki by Chang-Prusoff equation
# Settings: affinity for the NK1 receptor
# Text: The in vitro and in vivo NK1, NK2 and NK3 activities of the compounds of Formula I can be determined by various procedures known in the art, such as a test for their ability to inhibit the activity of the NK1 agonist Substance P. The percent inhibition of neurokinin agonist activity is the difference between the percent of maximum specific binding (“MSB”) and 100%. The percent of MSB is defined by the following equation, wherein “dpm” represents “disintegrations per minute”:
# [formula] The concentration at which the compound produces 50% inhibition of binding is then used to determine an inhibition constant (“Ki”) using the Chang-Prusoff equation.
# The activities (potencies) for the compounds of the invention are determined by measuring their Ki values. […] Even more preferred are compounds having average Ki values of from 0.1 nM to about 5 nM for the NK1 receptor. Especially preferred compounds have […], average Ki values of from 0.1 nM to about 1 nM. Even more especially preferred compounds have NK1 average Ki values of from 0.1 nM to about 0.3 nM.
# Sequence of NK1 receptor (P25103 whole entry, species assumed): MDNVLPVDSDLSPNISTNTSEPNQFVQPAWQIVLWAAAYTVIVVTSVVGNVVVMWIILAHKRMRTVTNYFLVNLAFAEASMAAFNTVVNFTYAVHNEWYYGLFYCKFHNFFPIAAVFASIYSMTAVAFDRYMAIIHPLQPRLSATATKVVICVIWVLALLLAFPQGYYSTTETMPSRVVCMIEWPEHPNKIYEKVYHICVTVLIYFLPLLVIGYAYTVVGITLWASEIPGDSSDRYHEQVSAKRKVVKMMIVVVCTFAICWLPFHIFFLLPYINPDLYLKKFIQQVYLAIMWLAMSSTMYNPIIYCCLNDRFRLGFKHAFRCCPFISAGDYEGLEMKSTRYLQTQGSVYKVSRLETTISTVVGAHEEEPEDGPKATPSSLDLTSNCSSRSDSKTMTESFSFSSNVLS
row,Compound,Ki
1,C[C@@H](OC[C@@]1(c2ccccc2)CC[C@](C#N)(N2CCC2=O)CN1)c1cc(C(F)(F)F)cc(C(F)(F)F)c1 [Compound 9],0.18 nM
2,C[C@@H](OC[C@@]1(c2ccccc2)CC[C@](C#N)(N2CCOC2=O)CN1)c1cc(C(F)(F)F)cc(C(F)(F)F)c1 [Compound 2],0.12 nM
3,CCNC(=O)C[C@]1(n2cn[nH]c2=O)CC[C@@](CO[C@H](C)c2cc(C(F)(F)F)cc(C(F)(F)F)c2)(c2ccccc2)NC1 [Compound 16],0.13 nM
4,C[C@@H](OC[C@@]1(c2ccccc2)CC[C@](CO)(n2cn[nH]c2=O)CN1)c1cc(C(F)(F)F)cc(C(F)(F)F)c1 [Compound 23],0.12 nM
5,CC(=O)C[C@]1(n2cn[nH]c2=O)CC[C@@](CO[C@H](C)c2cc(C(F)(F)F)cc(C(F)(F)F)c2)(c2ccccc2)NC1 [Compound 30],0.54 nM
6,COC[C@]1(N2CC(=O)NC2=O)CC[C@@](CO[C@H](C)c2cc(C(F)(F)F)cc(C(F)(F)F)c2)(c2ccccc2)NC1 [Compound 20],0.11 nM
7,C/C(=N\O)[C@]1(n2cn[nH]c2=O)CC[C@@](CO[C@H](C)c2cc(C(F)(F)F)cc(C(F)(F)F)c2)(c2ccccc2)NC1 [Compound 54],0.12 nM
8,C[C@@H](OC[C@@]1(c2ccccc2)CC[C@](C#N)(n2cn[nH]c2=O)CN1)c1cc(C(F)(F)F)cc(C(F)(F)F)c1 [Compound 42],0.28 nM

# The remaining lines, values ahead:
row,Ki,Compound
1,0.1 nM,COC[C@@]1(n2cnnc2)CC[C@@](CO[C@H](C)c2cc(C(F)(F)F)cc(C(F)(F)F)c2)(c2ccccc2)NC1 [Compound 14]
2,0.05 nM,C[C@@H](OC[C@@]1(c2ccccc2)CC[C@@](CO)(n2cnnc2)CN1)c1cc(C(F)(F)F)cc(C(F)(F)F)c1 [Compound 12]
3,0.1 nM,C[C@@H](OC[C@@]1(c2ccccc2)CC[C@@](C(N)=O)(n2cnnc2)CN1)c1cc(C(F)(F)F)cc(C(F)(F)F)c1 [Compound 10]
4,0.11 nM,C[C@@H](OC[C@@]1(c2ccccc2)CC[C@](CC(N)=O)(n2cn[nH]c2=O)CN1)c1cc(C(F)(F)F)cc(C(F)(F)F)c1 [Compound 29]
5,0.1 nM,CCC(=O)[C@]1(n2cn[nH]c2=O)CC[C@@](CO[C@H](C)c2cc(C(F)(F)F)cc(C(F)(F)F)c2)(c2ccccc2)NC1 [Compound 19]
